Results on 1 compound are retold here after article PMC6754304 (Cell, 2019).

The experiment deals with S. cerevisiae HSP90 (HSP82) (Saccharomyces cerevisiae, UniProt P02829).
Chain of S. cerevisiae HSP90 (HSP82) (P02829 whole entry): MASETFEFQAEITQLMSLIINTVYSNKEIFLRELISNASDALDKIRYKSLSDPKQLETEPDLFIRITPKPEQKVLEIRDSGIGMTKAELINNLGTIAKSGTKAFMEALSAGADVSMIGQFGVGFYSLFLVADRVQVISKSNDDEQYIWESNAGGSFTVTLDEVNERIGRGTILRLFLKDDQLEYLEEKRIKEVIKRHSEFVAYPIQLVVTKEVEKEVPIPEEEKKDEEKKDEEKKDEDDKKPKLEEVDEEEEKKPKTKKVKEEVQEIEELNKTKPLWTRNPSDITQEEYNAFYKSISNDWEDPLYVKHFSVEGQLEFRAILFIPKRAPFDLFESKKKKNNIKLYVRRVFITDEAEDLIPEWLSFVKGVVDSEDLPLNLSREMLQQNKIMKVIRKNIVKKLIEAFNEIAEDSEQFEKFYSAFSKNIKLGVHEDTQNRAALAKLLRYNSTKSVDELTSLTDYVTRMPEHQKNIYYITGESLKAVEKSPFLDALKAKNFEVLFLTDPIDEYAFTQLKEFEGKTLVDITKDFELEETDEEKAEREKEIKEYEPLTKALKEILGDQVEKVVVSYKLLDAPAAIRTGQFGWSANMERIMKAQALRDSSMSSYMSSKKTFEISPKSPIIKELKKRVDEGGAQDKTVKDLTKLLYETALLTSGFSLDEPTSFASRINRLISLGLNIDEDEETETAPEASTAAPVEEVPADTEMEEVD

Regarding `Nc1ncnc2c1ncn2[C@@H]1O[C@H](COP(=O)(O)OP(=O)(O)OP(=O)(O)O)[C@@H](O)[C@H]1O` [ATP], the ATPase activity result was “assayed by measuring free phosphate release from ATP using the Malachite Green method”.
